Legend:
[1] = higher doses, e.g. 0.6 mg/kg; cited from earlier work
[2] = system: rhesus monkeys; test: Delayed saccade oculomotor paradigm (inhibition of premature saccades) after i.m. ketamine or saline; assay type: in vivo, rhesus monkey
From the text: FIG. 2 is a diagram showing the sequence of events. The trial started with the appearance of a fixation cross for a randomized duration followed by the appearance of two empty ‘boxes’, one at the center of the screen and at a 9-deg eccentric position. After the appearance of the two boxes, a target was flashed in the central one for 50 milliseconds. Extinction of the central target marked the beginning of the delay period that could last either 400, 900, 1400 or 1900 ms. At the end of the delay period, a target appeared for 50 ms in the eccentric box and the subject had to make a saccade to the eccentric box within a 400 ms grace period.
The experimental paradigm was designed to create a conflict between the urge to make a saccade to the peripheral box and the necessity to maintain fixation until the eccentric target appeared (FIG. 2). This required a strong inhibition of premature saccades before the appearance of the eccentric target.
A total of 14104 saccades were analyzed in the three monkeys of the present study (L, S, Y). […] Positive values represent saccades occurring after target onset. We classified saccades as visually-guided for latencies longer than 100 ms. Latencies shorter than 100 ms represent premature (anticipatory) saccades. It can be observed that in the control condition (dashed curve on FIG. 3A), average saccadic latencies tended on average to decrease with increasing delay duration, more premature saccades occurring during long delays. […] However, a significant interaction between injected product (placebo or ketamine) and delay duration was found (F3; 6.012=8.195; P=0.015). […] Saccades in short delay trials (400 or 900 ms delays) were less affected than saccades when the delay was longer (1400 or 1900 ms). This influence of ketamine on movement latency was reproducible between monkeys.
Three monkeys participated in the present study (referred to as L, S, Y). Apparatus
Subjects sat in darkness, facing a CRT screen, which presented stimuli at a frequency of 60 Hz. An EyeLink 1000 infrared eye tracking system (SR Research, Mississauga, Ontario) was used to record movements of the right eye at 1 KHz. All experiments were run with homemade stimulus generation software based on a real time Linux kernel (Xenomaï). Stimulus display and oculomotor data collection were synchronized on a frame-by-frame basis. Saccades were detected offline in MATLAB (MathWorks, Natic, Mass.) with a velocity threshold of 30 deg/sec.
Each trial started with an initial fixation period (referred to as ‘initial fixation’), with a small cross (0.7 deg) appearing on the CRT screen for a random duration (850±100 ms; see ‘X’ on FIG. 1). At the end of this random delay, two empty square ‘boxes’ appeared on the screen (1.4×1.4 deg), one in the center of the screen and one 9 deg eccentric, randomly to the right or to the left. […] Afterwards, a square target (1.4×1.4 deg) was flashed in the central box for 50 ms. Extinction of the initial target indicated to subjects the beginning of the delay period. Subjects were required to hold on fixation of the central box until another target (1.4×1.4 deg) was briefly presented for 50 ms in the eccentric box. In the variable fore period design, the delay period could take one of 4 different values with the same probability: 400 ms, 900 ms, 1400 ms and 1900 ms. In order to receive reward, subjects had to maintain fixation of the central box and wait for the appearance of the eccentric target. This required a strong inhibition of early saccades before the appearance of the eccentric target. Early saccades were not rewarded. This paradigm was designed to test inhibition during the delay period.
Each experimental session started with a block of 200 trials before injection to measure the baseline saccadic latency on a day-by-day basis. On a randomly selected day ketamine (0.250 mg/kg) was injected i.m. or a placebo saline solution (NaCl 0.9%) of the same volume (0.3 ml). […]

[3] = system: supplementary eye field (SEF) neurons; test: Single-neuron recordings of saccade-related and fixation neurons during the saccade task; assay type: in vivo, rhesus monkey; details: 0.25 mg/kg i.m.; for average neuronal activity of fixation units/neurons: delay and saccadic period, 0.25 mg/kg
From the text: FIG. 9 is a graph showing the average neuronal activity (spike density) of 30 movement-related supplementary eye field (SEF) neurons during fixation (negative time), delay (between the two vertical dashed lines) and after saccade appearance (after the second dashed lined). Group data. A: delay duration: 400 ms. B: delay duration: 900 ms. C: delay duration: 1400 ms. D: delay duration: 1900 ms. […] This can be associated with the decrease of premature saccades.
FIG. 10 is a graph showing the average neuronal activity of “fixation” units during fixation, delay and saccadic period. Group data. A: delay duration: 400 ms. B: delay duration: 900 ms. C: delay duration: 1400 ms. D: delay duration: 1900 ms. […] This could be related to the enhanced inhibition capacity and reduction of impulsive behavior observed.
Neuronal activity of two animals was recorded on neurons with phasic discharge during the saccade (saccadic-relayed neurons, FIG. 9) and neurons with tonic activity when the eye is immobile (fixation neurons, FIG. 10). Average activity of 30 neurons is shown in the control condition (no ketamine) and after injection of 0.25 mg/kg ketamine i.m.
One male and one female rhesus monkey were used in this study. All procedures were approved by the Institutional Animal Care and Use Committee and were in compliance with the guidelines set forth in the United States Public Health Service Guide for the Care and Use of Laboratory Animals.
A celux recording chamber (Crist Instruments, Hagerstown, Md.) was positioned at 24 mm anterior in Horsley-Clark stereotaxic coordinates and centered on the midline of the brain in both monkeys. At the completion of the surgeries, animals were returned to their home cages. Antibiotics and analgesics were administered as needed during the recovery period under the direction of a veterinarian.
The monkeys were seated in a primate chair with their head restrained for the duration of the testing sessions. They were trained to execute the behavioral task described above for liquid reward and were allowed to work to satiation. Records of each animal's weight and health status were kept, and supplemental water was given as necessary. The monkeys had their heads immobilized and were trained to pursue spots of light projected on a tangent screen in front of them.
To record neuronal activity, a single tungsten microelectrode (FHC, Bowdoinham, Me.) of approximately 6 MΩ impedance at 1 kHz was lowered into the cortex through the dura using a Narishige microdrive. The position of the electrode was determined using a grid system (Crist et al., 1988). Action potentials of single units were isolated using an on-line spike-sorting system that uses a template-matching algorithm (Plexon Inc). A pulse was generated each time an action potential was detected and stored with a 1 ms resolution.
To analyze the time course of neuronal activity, spike trains were convolved with a Gaussian probability density in steps of 1 ms to generate the spike-density function (Richmond et al., 1987). The SD of the Gaussian function was set to 20 ms. The average spike density in each experimental condition was computed from all trials in which subjects pursued the target until the end of its trajectory.

[4] = Total of monkeys L, S, Y, 0.25 mg/kg i.m.

Q: For `CNC1(c2ccccc2Cl)CCCCC1=O` (stereo not drawn) [ketamine], which “spontaneous nystagmus or centripetal drift of the eye” value [1] is on record?
A: could be observed with higher doses

Q: What about the “spontaneous nystagmus or centripetal drift of the eye” value ([2]; 0.25 mg/kg) of the same molecule?
A: did not evoke spontaneous nystagmus or centripetal drift of the eye

Q: And the latency variance ([2]; 0.25 mg/kg i.m., as a function of delay duration)?
A: latency variance decreased

Q: And the “reduction of premature saccades by delay duration” value ([2]; 0.25 mg/kg i.m., delay durations 400-1900 ms)?
A: particularly strong for long delay durations (1400 ms and 1900 ms)

Q: What about the “saccadic latency as a function of delay duration” value ([2]; 0.25 mg/kg i.m., delays 400, 900, 1400, 1900 ms, group data) of the same molecule?
A: prolonged saccadic latencies differently with increasing delay duration

Q: And the “saccadic latency (all saccades)” value ([2]; 0.25 mg/kg i.m., group data of three monkeys, two blocks of trials following injection)?
A: altered saccadic latency

Q: And the “number of premature saccades” value ([2]; 0.25 mg/kg i.m., group data, vs saline)?
A: strongly and significantly reduced

Q: And the “average premature saccade latency” value ([2]; 0.25 mg/kg i.m., saccades with latency <100 ms, group data)?
A: not affected

Q: What about the “Premature saccades (number)” value ([2]; Monkey L, 0.25 mg/kg i.m.) of the same molecule?
A: 408

Q: What about the “Premature saccades (percentage of total)” value ([2]; Monkey L, 0.25 mg/kg i.m.) of the same molecule?
A: (21%)

Q: And the “Visually guided saccades (number)” value ([2]; Monkey L, 0.25 mg/kg i.m.)?
A: 1520

Q: What about the “Visually guided saccades (percentage of total)” value ([2]; Monkey L, 0.25 mg/kg i.m.) of the same molecule?
A: (79%

Q: What about the saccade amplitude ([2]; Monkey L, 0.25 mg/kg i.m., control 5.7±0.05 deg) of the same molecule?
A: 5.2±0.05 deg

Q: What about the “decrease of the proportion of valid trials” value ([2]; Monkey L, after ketamine injection 0.25 mg/kg i.m.) of the same molecule?
A: ~5%

Q: What about the “Premature saccades (number)” value ([2]; Monkey S, 0.25 mg/kg i.m.) of the same molecule?
A: 21

Q: And the “Premature saccades (percentage of total)” value ([2]; Monkey S, 0.25 mg/kg i.m.)?
A: (7%)

Q: What about the “Visually guided saccades (number)” value ([2]; Monkey S, 0.25 mg/kg i.m.) of the same molecule?
A: 2939

Q: And the “Visually guided saccades (percentage of total)” value ([2]; Monkey S, 0.25 mg/kg i.m.)?
A: (93%)

Q: What about the “increase of the proportion of valid trials” value ([2]; Monkey S, after ketamine injection 0.25 mg/kg i.m.) of the same molecule?
A: ~10%

Q: And the “Premature saccades (number)” value ([2]; Monkey Y, 0.25 mg/kg i.m.)?
A: 150

Q: What about the “Premature saccades (percentage of total)” value ([2]; Monkey Y, 0.25 mg/kg i.m.) of the same molecule?
A: (6%)

Q: And the “Visually guided saccades (number)” value ([2]; Monkey Y, 0.25 mg/kg i.m.)?
A: 2537

Q: What about the “Visually guided saccades (percentage of total)” value ([2]; Monkey Y, 0.25 mg/kg i.m.) of the same molecule?
A: (94%)

Q: What about the saccade amplitude ([2]; Monkey Y, 0.25 mg/kg i.m., control 5.7±0.03 deg) of the same molecule?
A: 6.2±0.04 deg

Q: What about the “proportion of valid trials” value ([2]; Monkey Y, after ketamine injection 0.25 mg/kg i.m.) of the same molecule?
A: unchanged

Q: What about the “premature saccades after single injection (saccadic latency vs trial number)” value ([2]; Monkey Y, single injection) of the same molecule?
A: sharp decrease of premature saccades

Q: And the “trials after injection until the number of early anticipatory saccades was strongly reduced” value ([2]; Monkey Y, single injection 0.25 mg/kg i.m.)?
A: Approximately 100 trials

Q: What about the “return of premature saccades frequency to control levels” value ([2]; Monkey Y, single injection 0.25 mg/kg i.m., blocks of 200 trials) of the same molecule?
A: Only during the third block following injection

Q: And the “trials until cumulated sums of latencies of control and ketamine diverged” value ([2]; Monkeys Y and L, 13 injections, 0.25 mg/kg i.m.)?
A: approximately 75 trials

Q: And the “Premature saccades (number)” value [2, 4]?
A: 579

Q: What about the “Visually guided saccades (number)” value [2, 4] of the same molecule?
A: 6996

Q: What about the “time for ketamine to affect saccade latency” value ([2]; after the onset of the second block of trials, single trial 3300 ms on average) of the same molecule?
A: approximately 4 minutes

Q: And the “average difference in the latency of visually-guided saccade between conditions” value ([2]; ketamine 0.25 mg/kg i.m. vs saline, saccades with latency >100 ms, group data)?
A: approx. 10 ms

Q: What about the “saccade amplitude, group data” value ([2]; monkeys L and Y, 0.25 mg/kg i.m., 0.25 mg/kg) of the same molecule?
A: did not reduce saccade amplitude

Q: What about the “saccade amplitude, group data” value ([2]; monkeys L and Y, 0.25 mg/kg i.m., listed as Ketamine, 0.25 mg/kg) of the same molecule?
A: modestly reduced saccadic amplitude

Q: What about the saccade amplitude changes ([2]; monkeys L and Y, ketamine vs control) of the same molecule?
A: ~10%

Q: What about the “proportion of valid trials, group level” value ([2]; three monkeys, 0.25 mg/kg i.m.) of the same molecule?
A: did not statistically alter the proportion of valid trials

Q: And the “activity of premotor saccadic neurons” value ([3]; two animals)?
A: decreases the activity of premotor saccadic neurons

Q: What about the “average neuronal activity of movement-related SEF neurons after target appearance” value ([3]; 30 neurons) of the same molecule?
A: reduces activity after target appearance

Q: What about the “average neuronal activity (spike density) of movement-related SEF neurons during the delay period” value ([3]; 30 neurons, delays 400-1900 ms) of the same molecule?
A: reduces neuronal activity during the delay period

Q: And the “average neuronal activity of fixation units/neurons” value [3]?
A: increases the activity of fixation neurons

Q: And the “average neuronal activity of fixation units/neurons” value ([3]; listed as Ketamine)?
A: increased the fixation, delay and initial saccadic period
